Like-named read-outs stand apart in the source and are kept apart here.
What was measured:
KRAS G12C = biological target: T1, KRAS G12C (Homo sapiens, UniProt P01116, G12C); assay: KRAS G12C NEA-HTRF experiment (SOS1-catalyzed displacement of GDP by GTP); format: biochemical
T1 construct: purchased Reactionbiology
Text: Raw materials and instruments: KRAS G12C (his-tag) purchased from Reactionbiology; batch number 3496; SOS1 purchased from Reactionbiology; batch number: 3501; GTP purchased from Sigma; article number: G8877; batch number: SLBV1450; Tris-HC1 purchased from Sigma; EDTA purchased from absin; article number: abs42017668; batch number: JE20; NaCl purchased from Sigma; article number: 55886; batch number: SLBW4193; MgCl2 purchased from Shyuanye; article number: R21455; batch number: L07S9G69806; HEPES purchased from Life Technologies; article number: 15630-080; batch number: 2037042; DTT purchased from Thermo Fisher; article number: R0862; batch number: 00608918; Triton X-100 purchased from Sigma; article number: T8787-100 ML; batch number: SLBW7103; DY647-labeled GDP purchased from Jena Bioscience; article number: NU-840-647P1; batch number: BM019-045; Anti-6H1S-Tb purchased from Cisbio; article number: 61H12TLA; batch number: 13A; Bradford Assay Kit purchased from Thermo Fisher; article number: 23246; batch number: UG287474; white opaque 96-well plate purchased from Cisbio; article number: 66PL96025; batch number: N°06; NAP-5 column purchased from GE Healthcare; article number: 17085301; batch number: 16995164; mircoplate reader purchased from PerkinElmer; model: Envision MLD2105-0020; equipment number 1050369. The effect of compounds on SOS1-catalyzed displacement of GDP by GTP on KRAS protein was examined using a homogeneous time-resolved fluorescence (HTRF) method. 30 μM 6×his-tagged KRAS G12C recombinant protein was incubated with 80 μM fluorescent dye DY647-labeled GDP in labeling buffer (1 mM DTT, 7.5 mM EDTA, 25 mM Tris-HCl, 45 mM NaCl) at 20° C. in the dark for 2 hours, purified using NAP-5 column, and then protein quantification was performed with Bradford Assay Kit after purification to determine the concentration of KRAS […] 3.16-fold gradient concentration stock solution of 1000× compound was prepared with DMSO, and diluted 250-fold to 4× compound stock solution with reaction buffer (40 mM HEPES, 10 mM MgCl2, 1 mM DTT, 0.002% Triton X-100). KRAS G12C-GDP/Tb working solution (40 nM KRAS […] Tb) and SOS1/GTP working solution (0.2 μM SOS1, 200 μM GTP) were prepared using the reaction buffer. A white opaque 96-well plate was taken, and 5 μL of 4× compound stock solution and 10 μL of KRAS G12C-GDP/Tb working solution were added to each well. 5 μL of reaction buffer instead of 4x compound stock solution was used in the control well. After incubation in the dark for 15 minutes at 20° C., 5μL of SOS1/GTP working solution was added thereto, and the fluorescence value (excitation wavelength: 320 nm, emission wavelength: 615 nm and 665 nm) was read after incubating at 20° C. in the dark for 2 hours. Another T0 group was set up with 10 μL reaction buffer+10 μL KRAS G12C-GDP/Tb working solution, and the fluorescence value was read directly by the microplate reader. The fluorescence signal ratio RLU=(665 nm signal/615 nm signal)×10^4; and the compound inhibition rate IR (%)=(RLUcompound-RLUcontrol)/(RLUT0-RLUcontrol)×100% were calculated. The IC50 value was calculated by fitting the gradient dilution concentration of compound and the corresponding inhibition rate with the four-parameter method. The NEA activity of the compounds prepared in the above embodiments of the present disclosure was 0.0001 μM to 1 μM; the inhibitory activity of some compounds on KRAS G12C mutant MIA PaCa-2 cells was 0.001 μM to 0.5 μM or 0.001 μM to 0.1 μM.

[1] = system: KRAS G12C mutant NCI-H358 cells; assay: Cell proliferation inhibition experiment, 3D spheroid, CellTiter-Glo, NCI-H358; format: cell-based, human; conditions: NCI-H358 (KRAS G12C mutant) 3D spheroid, 5 days with compound, CellTiter-Glo, read-out: H358 IC50
Summary of the method: (§1)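 3D spheroid format; 800 H358 / 400 A549 cells/well, 2% FBS. Cpd 3.16-fold series, 0.1% DMSO, 5 d. Readout CellTiter-Glo luminescence; IR% vs DMSO control and medium blank; 4-parameter IC50.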

[2] = system: A549 cells (KRAS G12S mutant); assay: Cell proliferation inhibition experiment, 3D spheroid, CellTiter-Glo, A549; format: cell-based, human; conditions: A549 (KRAS G12S mutant) 3D spheroid, 5 days with compound, CellTiter-Glo, read-out: A549 IC50
Summary of the method: as §1

[3] = system: KRAS G12C mutant MIA PaCa-2 cells; assay: Cell proliferation inhibition experiment, 3D spheroid, CellTiter-Glo, MIA PaCa-2; format: cell-based, human; conditions: 3D cell model in 384-well spheroid plate, 5 days, CellTiter-Glo, read-out: MIA-PaCa2 IC50
Summary of the method: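 Luminescent ATP read-out (CellTiter-Glo) after 5-day compound treatment of spheroids formed overnight from 200 MIA PaCa-2 cells/well; compounds in 3.16-fold series, 0.1% DMSO final. IC50 derived by four-parameter fit of percent inhibition, normalized to DMSO control and medium blank.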

[4] = Homo sapiens, MIA PaCa-2, 120 h

T1 sequence (P01116 1-188 isoform P01116-2 G12C): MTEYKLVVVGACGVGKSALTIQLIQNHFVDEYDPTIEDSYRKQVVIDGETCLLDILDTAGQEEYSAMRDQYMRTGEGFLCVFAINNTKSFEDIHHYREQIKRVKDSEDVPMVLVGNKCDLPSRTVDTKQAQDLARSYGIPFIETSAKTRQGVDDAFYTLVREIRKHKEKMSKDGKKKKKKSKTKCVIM

Row | SMILES | IC50 (KRAS G12C) | IC50 [1] | IC50 [2] | IC50 [3] | IC50 ([1]; Homo sapiens, NCI-H358, 120 h) | IC50 ([2]; Homo sapiens, A549, 120 h) | IC50 [3, 4]
1 | C=CC(=O)N1CCN2C(=O)c3c(N4C[C@H](O)CC4(C)C)nc(-c4c(F)ccc(F)c4O)c(F)c3OC[C@H]2C1 (single isomer, unassigned) [Z449-2] | 389 nM | – | – | – | – | – | –
2 | C=CC(=O)N1CCN2C(=O)c3c(-c4ccccc4)nc(-c4c(O)cccc4F)c(Cl)c3OC[C@H]2C1 [Z53, (6aR)-8-acryloyl-4-chloro-3-(2-fluoro-6-hydroxyphenyl)-1-phenyl-6,6a,7,8,9,10-hexahydro-12H-pyrazino[2,1-c]pyrido[3,4-f]oxazepin-12-one] | – | 146 nM | > 30000 nM | 292 nM | – | – | –
3 | C=CC(=O)N1CCN2C(=O)c3c(N4[C@@H]5CC[C@H]4COC5)nc(-c4c(O)cccc4F)c(Cl)c3OC[C@H]2C1 [Z38, (6aR)-8-acryloyl-1-((1R,5S)-3-oxa-8-azabicyclo[3.2.1]octan-8-yl)-4-chloro-3-(2-fluoro-6-hydroxyphenyl)-6,6a,7,8,9,10-hexahydro-12H-pyrazino[2,1-c]pyrido[3,4-f][1,4]oxazepin-12-one] | – | – | – | – | 55 nM | > 10000 nM | 88 nM
4 | C=CC(=O)N1CCN2Cc3c(NC(C)(C)C)nc(-c4c(O)cccc4F)c(Cl)c3OC[C@H]2C1 [Z71, 1-((6aR)-1-(tert-butylamino)-4-chloro-3-(2-fluoro-6-hydroxyphenyl)-6a,7,9,10-tetrahydro-12H-pyrazino[2,1-c]pyrido[3,4-f][1,4]oxazepin-8(6H)-yl)prop-2-en-1-one] | – | – | – | – | 275 nM | > 10000 nM | 467 nM
5 | C=CC(=O)N1CCN2C(=O)c3c(N4CCN(C)CC4)nc(-c4c(O)cccc4F)c(Cl)c3OC[C@H]2C1 [Z30, (6aR)-8-acryloyl-4-chloro-3-(2-fluoro-6-hydroxyphenyl)-1-(4-methylpiperazin-1-yl)-6,6a,7,8,9,10-hexahydro-12H-pyrazino[2,1-c]pyrido[3,4-f][1,4]oxazepin-12-one] | – | – | – | – | 40 nM | > 20000 nM | 41 nM
6 | C=CC(=O)N1CCN2C(=O)c3c(N(C)C4CCOCC4)nc(-c4c(O)cccc4F)c(Cl)c3OC[C@H]2C1 [Z25, (6aR)-8-acryloyl-4-chloro-3-(2-fluoro-6-hydroxyphenyl)-1-(methyl(tetrahydro-2H-pyran-4-yl)amino)-6,6a,7,8,9,10-hexahydro-12H-pyrazino[2,1-c]pyrido[3,4-f][1,4]oxazepin-12-one] | – | – | – | – | 58 nM | > 20000 nM | 81 nM
7 | C=CC(=O)N1CCN2C(=O)c3c(N4CCCC45CCOC5)nc(-c4c(O)cccc4F)c(Cl)c3OC[C@H]2C1 (stereo partly drawn) [Z58, (6aR)-8-acryloyl-4-chloro-3-(2-fluoro-6-hydroxyphenyl)-1-(7-oxa-1-azaspiro[4.4]nonan-1-yl)-6,6a,7,8,9,10-hexahydro-12H-pyrazino[2,1-c]pyrido[3,4-f][1,4]oxazepin-12-one] | – | – | – | – | 145 nM | > 5000 nM | 237 nM
8 | C=CC(=O)N1CCN2Cc3c(Nc4c(C)ccnc4C(C)C)nc(-c4c(O)cccc4F)c(Cl)c3OC[C@H]2C1 [Z19, 1-((6aR)-4-chloro-3-(2-fluoro-6-hydroxyphenyl)-1-((2-isopropyl-4-methylpyridin-3-yl)amino)-6a,7,9,10-tetrahydro-12H-pyrazino[2,1-c]pyrido[3,4-f][1,4]oxazepin-8(6H)-yl)prop-2-en-1-one] | – | – | – | – | 35 nM | > 30000 nM | 63 nM
9 | C=CC(=O)N1CCN2C(=O)c3c(N4CCOC5(CCC5)C4)nc(-c4c(O)cccc4F)c(Cl)c3OC[C@H]2C1 [Z36, (6aR)-8-acryloyl-4-chloro-3-(2-fluoro-6-hydroxyphenyl)-1-(5-oxa-8-azaspiro[3.5]nonan-8-yl)-6,6a,7,8,9,10-hexahydro-12H-pyrazino[2,1-c]pyrido[3,4-f][1,4]oxazepin-12-one] | – | – | – | – | 40 nM | > 1000 nM | 57 nM
10 | C=CC(=O)N1CCN2C(=O)c3c(N4C[C@H]5CC[C@@H](C4)O5)nc(-c4c(O)cccc4F)c(Cl)c3OC[C@H]2C1 [Z62, (6aR)-8-acryloyl-4-chloro-1-((1R,5S)-8-oxa-3-azabicyclo[3.2.1]octan-3-yl)-3-(2-fluoro-6-hydroxyphenyl)-6,6a,7,8,9,10-hexahydro-12H-pyrazino[2,1-c]pyrido[3,4-f][1,4]oxazepin-12-one] | – | – | – | – | 23 nM | > 10000 nM | 29 nM
11 | C=CC(=O)N1CCN2C(=O)c3c(-c4ccncc4)nc(-c4c(O)cccc4F)c(Cl)c3OC[C@H]2C1 [Z54] | – | – | – | – | 124 nM | > 30000 nM | 169 nM
12 | C=CC(=O)N1CCN2C(=O)c3c(N4CCOC[C@H]4C)nc(-c4c(O)cccc4F)c(Cl)c3OC[C@H]2C1 [Z27, (6aR)-8-acryloyl-4-chloro-3-(2-fluoro-6-hydroxyphenyl)-1-((R)-3-methylmorpholino)-6,6a,7,8,9,10-hexahydro-12H-pyrazino[2,1-c]pyrido[3,4-f][1,4]oxazepin-12-one] | – | – | – | – | 33 nM | > 5000 nM | 41 nM
13 | C=CC(=O)N1CCN2C(=O)c3c(O[C@H]4CCN(C)C4)nc(-c4c(O)cccc4F)c(Cl)c3OC[C@H]2C1 [Z65, (6aR)-8-acryloyl-4-chloro-3-(2-fluoro-6-hydroxyphenyl)-1-(((S)-1-methylpyrrolidin-3-yl)oxy)-6,6a,7,8,9,10-hexahydro-12H-pyrazino[2,1-c]pyrido[3,4-f][1,4]oxazepin-12-one] | – | – | – | – | 51 nM | > 30000 nM | 38 nM
14 | C=CC(=O)N1CCN2C(=O)c3c(N4CCC5CN(C)CC54)nc(-c4c(O)cccc4F)c(Cl)c3OC[C@H]2C1 (stereo partly drawn) [Z47, (6aR)-8-acryloyl-4-chloro-3-(2-fluoro-6-hydroxyphenyl)-1-(5-methylhexahydropyrrolo[3,4-b]pyrrol-1(2H)-yl)-6,6a,7,8,9,10-hexahydro-12H-pyrazino[2,1-c]pyrido[3,4-f][1,4]oxazepin-12-one] | – | – | – | – | 47 nM | > 20000 nM | 42 nM
15 | C=CC(=O)N1CCN2C(=O)c3c(-c4ccnn4C(C)C)nc(-c4c(O)cccc4F)c(Cl)c3OC[C@H]2C1 [Z77, (6aR)-8-acryloyl-4-chloro-3-(2-fluoro-6-hydroxyphenyl)-1-(1-isopropyl-1H-pyrazol-5-yl)-6,6a,7,8,9,10-hexahydro-12H-pyrazino[2,1-c]pyrido[3,4-f][1,4]oxazepin-12-one] | – | – | – | – | 157 nM | > 20000 nM | 365 nM

From patent publication US20230203060A1 (GENFLEET THERAPEUTICS (SHANGHAI) INC., priority 2020, published 2023)
